Data published in patent US20250296971A1, “GASTRIC INHIBITORY PEPTIDE RECEPTOR LIGANDS” (priority 2021, published 2025).
*1 amine or outer side, *2 acyl side, *3 side chain or, on linkers, in order; H or OH if unused. Where a SMILES comes first, the peptide text is derived from it. Bridges are numbered along the chain shown (N, C = ends). [ ]: non-standard residue; d: D form. Trp(5-Cl) = N[C@@H](Cc1c[nH]c2ccc(Cl)cc12)C(=O)O; Phe(3,4-Cl2) = N[C@@H](Cc1ccc(Cl)c(Cl)c1)C(=O)O; Pyridine(2,6-diCH2) = c1cc(C[*:1])nc(C[*:2])c1; Phe(3-Cl) = N[C@@H](Cc1cccc(Cl)c1)C(=O)O; mXylylene = c1cc(C[*:1])cc(C[*:2])c1; pXylylene = c1cc(C[*:2])ccc1C[*:1]; Cya = N[C@@H](CS(=O)(=O)O)C(=O)O; Hyp = O=C(O)[C@@H]1C[C@@H](O)CN1; Suc = O=C(CCC(=O)[*:2])[*:1]; Thp = NC1(C(=O)O)CCOCC1; Aib = CC(C)(N)C(=O)O

molecular target: T1, GIPR (CHO-K1-hGIPR cells) (Homo sapiens, UniProt P48546); assay: FACS binding assay; details: competition with 20 nM GIP-057, 4° C. for 1 hour, read-out: pIC50 Category (converted)
T1 construct: host or cells: CHO-K1
T1 sequence (P48546 22-466): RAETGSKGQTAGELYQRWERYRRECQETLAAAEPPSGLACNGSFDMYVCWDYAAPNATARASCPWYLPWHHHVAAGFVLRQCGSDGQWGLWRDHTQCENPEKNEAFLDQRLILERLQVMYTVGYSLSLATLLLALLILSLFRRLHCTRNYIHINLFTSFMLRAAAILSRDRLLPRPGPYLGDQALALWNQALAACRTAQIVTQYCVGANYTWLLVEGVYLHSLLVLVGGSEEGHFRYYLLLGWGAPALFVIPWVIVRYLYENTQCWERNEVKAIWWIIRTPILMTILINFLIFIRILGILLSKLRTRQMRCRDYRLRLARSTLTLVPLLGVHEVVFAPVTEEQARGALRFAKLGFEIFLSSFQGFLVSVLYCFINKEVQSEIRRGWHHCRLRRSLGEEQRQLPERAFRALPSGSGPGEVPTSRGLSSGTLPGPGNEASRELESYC
Method in brief: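 Median fluorescence in the APC channel, measured on washed CHO-K1 cells overexpressing human GIPR, was fitted by four-parameter logistic regression against peptide concentration to yield EC50 or IC50 values. Secondary labelling used APC-streptavidin (1 μg/mL, 30 min, ice).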

Compound | IC50
CC[C@H](C)[C@@H]1NC(=O)[C@H](CC(C)C)NC(=O)C2(CCOCC2)NC(=O)[C@@H](NC(=O)[C@@H](CC(C)C)NC(=O)[C@H](CCC(=O)O)NC(=O)[C@@H]2C[C@@H](O)CN2C(=O)[C@H](Cc2cccc(Cl)c2)NC(=O)[C@H](Cc2c[nH]c3ccccc23)NC(=O)[C@H](CC(=O)O)NC(C)=O)CSCc2cccc(n2)CSC[C@@H](C(N)=O)NC1=O [GIP-320, Ac-Asp-Trp-Mcf-Hyp-Glu-leu-[Cys(2Lut)-Thp-Leu-Ile-Cys]-NH2] (Ac-DW[Phe(3-Cl)][Hyp]E[dL]C[Thp]LIC-NH2; linker 7-11 via Pyridine(2,6-diCH2)) | 0.1 to 0.794 µM
CC(=O)N[C@@H](CC(=O)O)C(=O)N[C@@H](Cc1c[nH]c2ccccc12)C(=O)N[C@@H](Cc1c[nH]c2ccc(Cl)cc12)C(=O)N1C[C@H](O)C[C@H]1C(=O)N[C@@H](CCC(=O)O)C(=O)N[C@H](CC(C)C)C(=O)N[C@H]1CSCc2cccc(n2)CSC[C@@H](C(N)=O)NC(=O)[C@H](CO)NC(=O)[C@H](CC(C)C)NC(=O)C2(CCOCC2)NC1=O [GIP-322, Ac-Asp-Trp-5Clw-Hyp-Glu-leu-[Cys(2Lut)-Thp-Leu-Ser-Cys]-NH2] (Ac-DW[Trp(5-Cl)][Hyp]E[dL]C[Thp]LSC-NH2; linker 7-11 via Pyridine(2,6-diCH2)) | 0.1 to 0.794 µM
CC[C@H](C)[C@@H]1NC(=O)[C@H](CC(C)C)NC(=O)C2(CCOCC2)NC(=O)[C@@H](NC(=O)[C@@H](CC(C)C)NC(=O)[C@H](CCC(=O)O)NC(=O)[C@@H]2C[C@@H](O)CN2C(=O)[C@H](Cc2ccc(Cl)c(Cl)c2)NC(=O)[C@H](Cc2ccc(Cl)c(Cl)c2)NC(=O)[C@H](CC(=O)O)NC(C)=O)CSCc2cccc(n2)CSC[C@@H](C(N)=O)NC1=O [GIP-323, Ac-Asp-Eaa-Eaa-Hyp-Glu-leu-[Cys(2Lut)-Thp-Leu-Ile-Cys]-NH2] (Ac-D[Phe(3,4-Cl2)][Phe(3,4-Cl2)][Hyp]E[dL]C[Thp]LIC-NH2; linker 7-11 via Pyridine(2,6-diCH2)) | 0.1 to 0.794 µM
CC[C@H](C)[C@@H]1NC(=O)[C@H](CC(C)C)NC(=O)[C@H](C)NC(=O)[C@@H](NC(=O)[C@H](CC(C)C)NC(=O)[C@H](CCC(=O)O)NC(=O)[C@@H]2CCCN2C(=O)[C@H](Cc2c[nH]c3ccccc23)NC(C)=O)CSCc2cccc(c2)CSC[C@@H](C(N)=O)NC1=O [GIP-325, Ac-Trp-Pro-Glu-Leu-[Cys(3MeBn)-Ala-Leu-Ile-Cys]-NH2] (Ac-WPELCALIC-NH2; linker 5-9 via mXylylene) | > 1 µM
CC[C@H](C)[C@@H]1NC(=O)[C@H](CC(C)C)NC(=O)[C@H](C)NC(=O)[C@@H](NC(=O)[C@H](CC(C)C)NC(=O)[C@H](CCC(=O)O)NC(=O)[C@@H]2CCCN2C(C)=O)CSCc2cccc(c2)CSC[C@@H](C(N)=O)NC1=O [GIP-326, Ac-Pro-Glu-Leu-[Cys(3MeBn)-Ala-Leu-Ile-Cys]-NH2] (Ac-PELCALIC-NH2; linker 4-8 via mXylylene) | > 1 µM
CC[C@H](C)[C@@H]1NC(=O)[C@H](CC(C)C)NC(=O)[C@H](C)NC(=O)[C@@H](NC(=O)[C@H](CC(C)C)NC(=O)[C@H](CCC(=O)O)NC(C)=O)CSCc2cccc(c2)CSC[C@@H](C(N)=O)NC1=O [GIP-327, Ac-Glu-Leu-[Cys(3MeBn)-Ala-Leu-Ile-Cys]-NH2] (Ac-ELCALIC-NH2; linker 3-7 via mXylylene) | > 1 µM
CC[C@H](C)[C@@H]1NC(=O)[C@H](CC(C)C)NC(=O)[C@H](C)NC(=O)[C@@H](NC(=O)[C@H](CC(C)C)NC(=O)[C@H](CCC(=O)O)NC(=O)[C@H]2CCCN2C(=O)[C@H](Cc2c[nH]c3ccccc23)NC(=O)[C@H](Cc2c[nH]c3ccccc23)NC(=O)[C@H](CC(=O)O)NC(=O)[C@H](Cc2ccc(O)cc2)NC(=O)[C@@H](N)CCSC)CSCc2cccc(c2)CSC[C@@H](C(N)=O)NC1=O [GIP-328, H-Met-Tyr-Asp-Trp-Trp-pro-Glu-Leu-[Cys(3MeBn)-Ala-Leu-Ile-Cys]-NH2] (H-MYDWW[dP]ELCALIC-NH2; linker 9-13 via mXylylene) | > 1 µM
CC[C@H](C)[C@@H]1NC(=O)[C@H](CC(C)C)NC(=O)[C@H](C)NC(=O)[C@@H](NC(=O)[C@H](CC(C)C)NC(=O)[C@H](CCC(=O)O)NC(=O)[C@@H]2CCCN2C(=O)[C@@H](Cc2c[nH]c3ccccc23)NC(=O)[C@H](Cc2c[nH]c3ccccc23)NC(=O)[C@H](CC(=O)O)NC(=O)[C@H](Cc2ccc(O)cc2)NC(=O)[C@@H](N)CCSC)CSCc2cccc(c2)CSC[C@@H](C(N)=O)NC1=O [GIP-329, H-Met-Tyr-Asp-Trp-trp-Pro-Glu-Leu-[Cys(3MeBn)-Ala-Leu-Ile-Cys]-NH2] (H-MYDW[dW]PELCALIC-NH2; linker 9-13 via mXylylene) | > 1 µM
CC[C@H](C)[C@@H]1NC(=O)[C@H](CC(C)C)NC(=O)[C@H](C)NC(=O)[C@@H](NC(=O)[C@H](CC(C)C)NC(=O)[C@H](CCC(=O)O)NC(=O)[C@@H]2CCCN2C(=O)[C@H](Cc2c[nH]c3ccccc23)NC(=O)[C@H](Cc2c[nH]c3ccccc23)NC(=O)[C@H](CC(=O)O)NC(=O)[C@H](Cc2ccc(O)cc2)NC(=O)[C@@H](N)CCSC)CSCc2ccc(cc2)CSC[C@@H](C(N)=O)NC1=O [GIP-331] (H-MYDWWPELCALIC-NH2; linker 9-13 via pXylylene) | > 1 µM
CC[C@H](C)[C@@H]1NC(=O)[C@H](CC(C)C)NC(=O)[C@H](C)NC(=O)[C@@H](NC(=O)[C@H](CC(C)C)NC(=O)[C@H](CCC(=O)O)NC(=O)[C@@H]2CCCN2C(=O)[C@H](Cc2c[nH]c3ccccc23)NC(=O)[C@H](C)NC(=O)[C@H](CC(=O)O)NC(=O)[C@H](Cc2ccc(O)cc2)NC(=O)[C@@H](N)CCSC)CSCc2cccc(c2)CSC[C@@H](C(N)=O)NC1=O [GIP-333] (H-MYDAWPELCALIC-NH2; linker 9-13 via mXylylene) | > 1 µM
CC[C@H](C)[C@@H]1NC(=O)[C@H](CC(C)C)NC(=O)[C@H](C)NC(=O)[C@@H](NC(=O)[C@H](CC(C)C)NC(=O)[C@H](CCC(=O)O)NC(=O)[C@@H]2CCCN2C(=O)[C@H](C)NC(=O)[C@H](Cc2c[nH]c3ccccc23)NC(=O)[C@H](CC(=O)O)NC(=O)[C@H](Cc2ccc(O)cc2)NC(=O)[C@@H](N)CCSC)CSCc2cccc(c2)CSC[C@@H](C(N)=O)NC1=O [GIP-334] (H-MYDWAPELCALIC-NH2; linker 9-13 via mXylylene) | > 1 µM

Results, then the compound that gave them:

IC50 | Compound
0.1 to 0.794 µM | CC[C@H](C)[C@@H]1NC(=O)[C@H](CC(C)C)NC(=O)[C@H](C)NC(=O)[C@@H](NC(=O)[C@H](CC(C)C)NC(=O)[C@H](CCC(=O)O)NC(=O)[C@@H]2CCCN2C(=O)[C@H](Cc2c[nH]c3ccccc23)NC(=O)[C@H](Cc2c[nH]c3ccccc23)NC(=O)[C@H](CS(=O)(=O)O)NC(C)=O)CSCc2cccc(c2)CSC[C@@H](C(N)=O)NC1=O [GIP-317, Ac-Cya-Trp-Trp-Pro-Glu-Leu-[Cys(3MeBn)-Ala-Leu-Ile-Cys]-NH2] (Ac-[Cya]WWPELCALIC-NH2; linker 7-11 via mXylylene)
0.1 to 0.794 µM | CC[C@H](C)[C@@H]1NC(=O)[C@H](CC(C)C)NC(=O)[C@@H](C)NC(=O)[C@@H](NC(=O)[C@@H](CC(C)C)NC(=O)[C@H](CCC(=O)O)NC(=O)[C@@H]2CCCN2C(=O)[C@H](Cc2c[nH]c3ccccc23)NC(=O)[C@H](Cc2c[nH]c3ccccc23)NC(=O)CCC(=O)O)CSCc2cccc(c2)CSC[C@@H](C(N)=O)NC1=O [GIP-318, HO-Succinyl-Trp-Trp-Pro-Glu-leu-[Cys(3MeBn)-ala-Leu-Ile-Cys]-NH2] (Suc-WWPE[dL]C[dA]LIC-NH2; linker 6-10 via mXylylene)
0.1 to 0.794 µM | CC[C@H](C)[C@@H]1NC(=O)[C@H](CC(C)C)NC(=O)C(C)(C)NC(=O)[C@@H](NC(=O)[C@H](CC(C)C)NC(=O)[C@H](CCC(=O)O)NC(=O)[C@@H]2C[C@@H](O)CN2C(=O)[C@H](Cc2c[nH]c3ccccc23)NC(=O)[C@H](Cc2c[nH]c3ccccc23)NC(=O)CCC(=O)O)CSCc2cccc(c2)CSC[C@@H](C(N)=O)NC1=O [GIP-319, HO-Succinyl-Trp-Trp-Hyp-Glu-Leu-[Cys(3MeBn)-Aib-Leu-Ile-Cys]-NH2] (Suc-WW[Hyp]ELC[Aib]LIC-NH2; linker 6-10 via mXylylene)
> 1 µM | CC[C@H](C)[C@@H]1NC(=O)[C@H](CC(C)C)NC(=O)[C@H](C)NC(=O)[C@@H](NC(=O)[C@H](CC(C)C)NC(=O)[C@H](CCC(=O)O)NC(=O)[C@@H]2CCCN2C(=O)[C@H](Cc2c[nH]c3ccccc23)NC(=O)[C@H](Cc2c[nH]c3ccccc23)NC(C)=O)CSCc2cccc(c2)CSC[C@@H](C(N)=O)NC1=O [GIP-324, Ac-Trp-Trp-Pro-Glu-Leu-[Cys(3MeBn)-Ala-Leu-Ile-Cys]-NH2] (Ac-WWPELCALIC-NH2; linker 6-10 via mXylylene)
> 1 µM | CC[C@H](C)[C@@H]1NC(=O)[C@@H](CC(C)C)NC(=O)[C@H](C)NC(=O)[C@@H](NC(=O)[C@H](CC(C)C)NC(=O)[C@H](CCC(=O)O)NC(=O)[C@@H]2CCCN2C(=O)[C@H](Cc2c[nH]c3ccccc23)NC(=O)[C@H](Cc2c[nH]c3ccccc23)NC(=O)[C@H](CC(=O)O)NC(=O)[C@H](Cc2ccc(O)cc2)NC(=O)[C@@H](N)CCSC)CSCc2cccc(c2)CSC[C@@H](C(N)=O)NC1=O [GIP-330] (H-MYDWWPELCA[dL]IC-NH2; linker 9-13 via mXylylene)
> 1 µM | CC[C@H](C)[C@@H]1NC(=O)[C@H](CC(C)C)NC(=O)[C@H](C)NC(=O)[C@@H](NC(=O)[C@H](CC(C)C)NC(=O)[C@H](CCC(=O)O)NC(=O)[C@@H]2CCCN2C(=O)[C@H](Cc2c[nH]c3ccccc23)NC(=O)[C@H](Cc2c[nH]c3ccccc23)NC(=O)[C@H](C)NC(=O)[C@H](Cc2ccc(O)cc2)NC(=O)[C@@H](N)CCSC)CSCc2cccc(c2)CSC[C@@H](C(N)=O)NC1=O [GIP-332] (H-MYAWWPELCALIC-NH2; linker 9-13 via mXylylene)
